Experiment: Log P by HPLC on reversed phase columns (EEC directive 79/831 Annex V.A8; methods [a], [b], [c])
Format: physicochemical
Procedure: Measurement of Log P values was performed according to EEC directive 79/831 Annex V.A8 by HPLC (High Performance Liquid Chromatography) on reversed phase columns with the following methods: • ^[a] Log P value is determined by measurement of LC-UV, in an acidic range, with 0.1% formic acid in water and acetonitrile as eluent (linear gradient from 10% acetonitrile to 95% acetonitrile). • ^[b] Log P value is determined by measurement of LC-UV, in a neutral range, with 0.001 molar ammonium acetate solution in water and acetonitrile as eluent (linear gradient from 10% acetonitrile to 95% acetonitrile). • ^[c] Log P value is determined by measurement of LC-UV, in an acidic range, with 0.1% phosphoric acid and acetonitrile as eluent (linear gradient from 10% acetonitrile to 95% acetonitrile).
If more than one Log P value is available within the same method, all the values are given and separated by “+”.
Calibration was done with straight-chain alkan2-ones (with 3 to 16 carbon atoms) with known Log P values (measurement of Log P values using retention times with linear interpolation between successive alkanones). Lambda-max-values were determined using UV-spectra from 200 nm to 400 nm and the peak values of the chromatographic signals.

| SMILES | LogP |
| --- | --- |
| N#Cc1cncn1CC(O)c1cnc(Oc2ccc(C(F)(F)F)nc2)cc1C(F)(F)F (centres unmarked) [I-118] | 2.46^[a] |
| OC(Cn1cncc1F)c1cnc(Oc2ccc(Cl)cc2)cc1C(F)(F)F (centres unmarked) [I-119] | 2.23^[a] |
| N#Cc1cncn1CC(O)c1cnc(Oc2ccc(Cl)cc2)cc1C(F)(F)F (centres unmarked) [I-120] | 2.87^[a] |
| OC(Cn1cncc1F)c1cnc(Oc2ccc(OC(F)(F)F)cc2)cc1C(F)(F)F (centres unmarked) [I-121] | 2.42^[a] |
| OC(Cn1cncc1F)c1cnc(Oc2ccc(C(F)(F)F)cc2)cc1Br (centres unmarked) [I-122] | 1.94^[a] |
| OC(Cn1cncc1F)c1ccc(Oc2ccc(Cl)cc2)nc1C(F)(F)F (centres unmarked) [I-123] | 2.25^[a] |
| N#Cc1cncn1CC(O)c1ccc(Oc2ccc(Cl)cc2)nc1C(F)(F)F (centres unmarked) [I-124] | 3.15^[a] |
| N#Cc1cncn1CC(O)c1cnc(Oc2ccc(OC(F)(F)F)cc2)cc1C(F)(F)F (centres unmarked) [I-125] | 3.35^[a] |
| OC(Cn1cncc1F)c1cnc(Oc2ccc(C(F)(F)F)cc2)cc1Cl (centres unmarked) [I-126] | 2.27^[a] |
| N#Cc1cncn1CC(O)c1cnc(Oc2ccc(C(F)(F)F)cc2)cc1Cl (centres unmarked) [I-127] | 2.96^[a] |
| N#Cc1cncn1CC(O)c1ccc(Oc2ccc(Br)cc2)nc1C(F)(F)F (centres unmarked) [I-128] | 3.09^[a] |
| N#Cc1cncn1CC(O)c1ccc(Oc2ccc(C(F)(F)F)cc2)nc1 (centres unmarked) [I-129] | 2.55^[a] |
| N#Cc1cncn1CC(O)c1cnc(Oc2ccc(C(F)(F)F)cc2)cc1Br (centres unmarked) [I-130] | 3.13^[a] |
| CCOC(Cn1cncc1F)c1cnc(Oc2ccc(Cl)cc2)cc1C(F)(F)F (centres unmarked) [I-132] | 3.15^[a] |
| N#Cc1cncn1CC(O)c1cnc(Oc2ccc(Br)cc2)cc1C(F)F (centres unmarked) [I-134] | 2.43^[a] |
| N#Cc1cncn1CC(O)c1ccc(Oc2c(F)cc(Cl)cc2F)nc1C(F)(F)F (centres unmarked) [I-135] | 3.23^[a] |
| N#Cc1cncn1CC(O)c1ccc(Oc2ccc(Cl)cc2F)nc1C(F)(F)F (centres unmarked) [I-136] | 2.94^[a] |
| N#Cc1cncn1CC(O)c1ccc(Oc2ccc(OC(F)(F)F)cc2)nc1C(F)(F)F (centres unmarked) [I-137] | 3.12^[a] |
| N#Cc1cncn1CC(O)c1ccccc1Cl (centres unmarked) [I-138] | 1.57^[a] |
| N#Cc1cncn1CC(O)c1ccccc1F (centres unmarked) [I-139] | 1.31^[a] |
| N#Cc1cncn1CC(O)c1ccccc1Br (centres unmarked) [I-140] | 1.62^[a] |
| N#Cc1cncn1CC(O)c1ccc(C(F)(F)F)cc1 (centres unmarked) [I-141] | 1.90^[a] |

| SMILES | LogP |
| --- | --- |
| OC(Cn1cncc1F)c1ccc(Oc2ccc(C(F)(F)F)nc2)nc1C(F)(F)F (centres unmarked) [I-142] | 1.98^[a] |
| N#Cc1cncn1CC(O)c1ccc(Oc2ccc(C(F)(F)F)nc2)nc1C(F)(F)F (centres unmarked) [I-143] | 2.56^[a] |
| N#Cc1cncn1CC(O)c1ccc(Cl)cc1Cl (centres unmarked) [I-144] | 2.12^[a] |
| N#Cc1cncn1CC(O)c1ccc(Oc2ccc(C(F)F)cc2)nc1C(F)(F)F (centres unmarked) [I-145] | 2.77^[a] |
| N#Cc1cncn1CC(O)c1ccc(Oc2ccc(S(F)(F)(F)(F)F)cc2)nc1C(F)(F)F (centres unmarked) [I-146] | 3.35^[a] |
| OC(Cn1cncc1F)c1ccc(Oc2ccc(S(F)(F)(F)(F)F)cc2)nc1C(F)(F)F (centres unmarked) [I-147] | 2.59^[a] |
| OC(Cn1cncc1F)c1ccc(Oc2ccc(C(F)F)cc2)nc1C(F)(F)F (centres unmarked) [I-148] | 2.20^[a] |
| N#Cc1cncn1CC(O)c1ccc(Oc2ccc(C(F)(F)F)cc2)nc1C(F)(F)F (centres unmarked) [I-149] | 3.13^[a] |
| N#Cc1cncn1CC(O)c1ccccc1C(F)(F)F (centres unmarked) [I-150] | 1.81^[a] |
| N#Cc1cncn1CC(O)c1ccc(Oc2ccc(Cl)nc2)nc1C(F)(F)F (centres unmarked) [I-151] | 2.37^[a] |
| N#Cc1cncn1CC(O)c1cnc(Oc2ccc(Cl)nc2)cc1C(F)(F)F (centres unmarked) [I-152] | 2.32^[a] |
| N#Cc1cncn1CC(O)c1cnc(Oc2ccc(Br)nc2)cc1C(F)(F)F (centres unmarked) [I-153] | 2.41^[a] |
| N#Cc1cncn1CC(O)c1ccc(Oc2ccc(Br)nc2)nc1C(F)(F)F (centres unmarked) [I-154] | 2.46^[a] |
| OC(Cn1cncc1F)c1ccc(Oc2ccc(Br)nc2)nc1C(F)(F)F (centres unmarked) [I-155] | 1.75^[a] |
| Cc1ccc(Oc2ccc(C(C)(O)Cn3cncc3Cl)c(Cl)c2)cc1 (centres unmarked) [I-156] | 3.13^[a] |
| CC(O)(Cn1cncc1Cl)c1ccc(Oc2ccc(OC(F)(F)F)cc2)c(Br)c1 (centres unmarked) [I-157] | 2.90^[a] |
| CC(O)(Cn1cncc1Cl)c1ccc(Oc2ccc(OC(F)(F)F)cc2)cc1Cl (centres unmarked) [I-158] | 3.06^[a] |
| CC(O)(Cn1cncc1Cl)c1ccc(Oc2ccc(C(F)(F)F)cc2)cc1Cl (centres unmarked) [I-159] | 3.02^[a] |
| CC(O)(Cn1cncc1Cl)c1ccc(Oc2ccc(C(F)(F)F)cc2)c(Br)c1 (centres unmarked) [I-160] | 2.78^[a] |
| CC(O)(Cn1cncc1Cl)c1ccc(Oc2ccc(C(F)(F)F)cc2)cc1 (centres unmarked) [I-161] | 2.51^[a] |
| CC(O)(Cn1cncc1Cl)c1cnc(Oc2ccc(Cl)cc2)cc1Cl (centres unmarked) [I-162] | 2.41^[a] |
| COc1ccc(Oc2ccc(C(C)(O)Cn3cncc3Cl)c(Cl)n2)c(Cl)c1 (centres unmarked) [I-163] | 2.30^[a] |

| SMILES | LogP |
| --- | --- |
| CC(O)(Cn1cncc1Cl)c1ccc(Oc2ccc(Cl)cc2)cc1 (centres unmarked) [I-164] | 2.32^[a] |
| CC(O)(Cn1cncc1Br)c1ccc(Oc2ccc(Cl)cc2)cc1 (centres unmarked) [I-165] | 2.30^[a] |
| CC(O)(Cn1cncc1Cl)c1ccc(Oc2ccc(I)cc2)cc1Cl (centres unmarked) [I-166] | 3.04^[a] |
| CC(O)(Cn1cncc1Cl)c1ccc(Oc2ccc(Cl)cc2)cc1Cl (centres unmarked) [I-167] | 2.86^[a] |
| CC(O)(Cn1cncc1Cl)c1ccc(Oc2ccc(Cl)cc2)cc1C(F)(F)F (centres unmarked) [I-168] | 2.80^[a] |
| CC(O)(Cn1cncc1Cl)c1ccc(Oc2ccc(Br)cc2)cc1C(F)(F)F (centres unmarked) [I-169] | 2.90^[a] |
| CC(O)(Cn1cncc1Br)c1ccc(Oc2ccc(Cl)cc2)cc1Br (centres unmarked) [I-170] | 2.80^[a] |
| CC(O)(Cn1cncc1Cl)c1ccc(Oc2ccc(Cl)cc2)cc1Br (centres unmarked) [I-171] | 2.82^[a] |
| CC(O)(Cn1cncc1Br)c1ccc(Oc2ccc(I)cc2)cc1Cl (centres unmarked) [I-172] | 3.17^[a] |
| CC(O)(Cn1cncc1Cl)c1ccc(Oc2ccc(Br)cc2)cc1Cl (centres unmarked) [I-173] | 2.80^[a] |
| CC(O)(Cn1cncc1Cl)c1cnc(Oc2ccc(Cl)cc2)cc1C(F)(F)F (centres unmarked) [I-175] | 2.62^[a] |
| CC(O)(Cn1cncc1Cl)c1ccc(Oc2ccc(Cl)nc2)cc1Cl (centres unmarked) [I-176] | 2.13^[a] |
| CC(O)(Cn1cncc1Cl)c1cnc(Oc2ccc(Cl)cc2)cc1Br (centres unmarked) [I-177] | 2.48^[a] |
| CC(O)(Cn1cncc1Br)c1ccc(Oc2ccc(Cl)cc2)cc1F (centres unmarked) [I-178] | 2.44^[a] |
| CC(O)(Cn1cncc1C(F)(F)F)c1ccc(Oc2ccc(I)cc2)cc1F (centres unmarked) [I-179] | 4.11^[a] |
| CC(O)(Cn1cncc1Cl)c1ccc(Oc2ccc(Cl)cc2)nc1C(F)(F)F (centres unmarked) [I-180] | 2.63^[a] |
| CC(O)(Cn1cncc1Cl)c1ccc(Oc2ccc(Cl)cn2)cc1Cl (centres unmarked) [I-181] | 2.28^[a] |
| CC(O)(Cn1cncc1C#N)c1ccc(Oc2ccc(Cl)cc2)cc1Cl (centres unmarked) [I-182] | 3.51^[a] |
| CC(O)(Cn1cncc1C(F)(F)F)c1ccc(Oc2ccc(Cl)cc2)cc1Cl (centres unmarked) [I-183] | 4.25^[a] |
| CC(O)(Cn1cncc1Br)c1ccc(Oc2ccc(Br)cc2)cc1Br (centres unmarked) [I-184] | 3.06^[a] |
| CC(O)(Cn1cncc1Cl)c1ccc(Oc2ccc(Br)cc2)cc1Br (centres unmarked) [I-185] | 3.06^[a] |
| CC(O)(Cn1cncc1Br)c1ccc(Oc2ccc(I)cc2)cc1Br (centres unmarked) [I-186] | 3.23^[a] |

| SMILES | LogP |
| --- | --- |
| CC(O)(Cn1cncc1Cl)c1ccc(Oc2ccc(I)cc2)cc1Br (centres unmarked) [I-187] | 3.25^[a] |
| CC(O)(Cn1cncc1C#N)c1ccc(Oc2ccc(Cl)cc2)cc1F (centres unmarked) [I-188] | 3.20^[a] |
| CC(O)(Cn1cncc1C#N)c1ccc(Oc2ccc(I)cc2)cc1F (centres unmarked) [I-189] | 3.48^[a] |
| CC(=O)c1cncn1CC(C)(O)c1ccc(Oc2ccc(Br)cc2)cc1F (centres unmarked) [I-190] | 2.75^[a] |
| CC(O)(Cn1cncc1C#N)c1ccc(Oc2ccc(Br)cc2)cc1F (centres unmarked) [I-191] | 3.29^[a] |
| CC(O)(Cn1cncc1Br)c1ccc(Oc2ccc(Br)cc2)cc1C(F)(F)F (centres unmarked) [I-192] | 3.03^[a] |
| CC(O)(Cn1cncc1Br)c1ccc(Oc2ccc(Cl)cc2)cc1C(F)(F)F (centres unmarked) [I-193] | 2.76^[a] |
| CC(O)(Cn1cncc1F)c1ccc(Oc2ccc(Cl)cc2)cc1Cl (centres unmarked) [I-194] | 2.34^[a] |
| CC(O)(Cn1cncc1Cl)c1ccc(Oc2ccc(C(F)(F)F)cc2)cc1C(F)(F)F (centres unmarked) [I-196] | 3.01^[a] |
| CC(=O)c1cncn1CC(C)(O)c1ccc(Oc2ccc(Br)cc2)cc1Cl (centres unmarked) [I-197] | 3.07^[a] |
| CC(O)(Cn1cncc1Br)c1ccc(Oc2ccc(Cl)cc2)cc1Cl (centres unmarked) [I-198] | 2.75^[a] |
| CC(O)(Cn1cncc1Br)c1ccc(Oc2ccc(C(F)(F)F)cc2)cc1C(F)(F)F (centres unmarked) [I-199] | 2.98^[a] |
| COC(C)(Cn1cncc1Br)c1ccc(Oc2ccc(Br)cc2)cc1C(F)(F)F (centres unmarked) [I-200] | 3.89^[a] |
| COC(C)(Cn1cncc1Br)c1ccc(Oc2ccc(Cl)cc2)cc1C(F)(F)F (centres unmarked) [I-201] | 3.76^[a] |
| CC(O)(Cn1cncc1C#N)c1ccc(Oc2ccc(I)cc2)cc1Cl (centres unmarked) [I-202] | 3.73^[a] |
| CC(O)(Cn1cncc1Cl)c1ccc(Oc2ccc(Br)nc2)cc1Cl (centres unmarked) [I-203] | 2.11^[a] |
| CC(O)(Cn1cncc1Cl)c1ccc(Oc2ccc(Br)cn2)cc1Cl (centres unmarked) [I-204] | 2.32^[a] |
| CC(O)(Cn1cncc1C(F)(F)F)c1ccc(Oc2ccc(Cl)cc2)cc1F (centres unmarked) [I-205] | 3.83^[a] |
| CC(O)(Cn1cncc1C#N)c1ccc(Oc2ccc(C(F)(F)F)cc2)cc1C(F)(F)F (centres unmarked) [I-206] | 3.64^[a] |
| CC(=O)c1cncn1CC(C)(O)c1ccc(Oc2ccc(C(F)(F)F)cc2)cc1C(F)(F)F (centres unmarked) [I-207] | 3.27^[a] |

Source: patent publication US20200031778A1, “NOVEL 5-SUBSTITUTED IMIDAZOLYLMETHYL DERIVATIVES” (Bayer CropScience Aktiengesellschaft, priority 2016, published 2020)
